# Where two headings read alike, the source gives them in different places.
# Legend:
# [1] = molecular target: human 5-HT2A receptor (Homo sapiens (Human), UniProt P28223); assay: Human 5-HT2A radioligand binding assay ([3H]-ketanserin)
# [2] = Liver microsomes stability, human; conditions: for Predicted hepatic CL: Human liver microsomes; for Remaining Percentage (%): Human; for CLint scaled at 2 μM / half-life at 2 μM / microsomal CLint at 2 μM: human, microsomes
# Protocol: (§1) The objective of this study was to estimate in vitro metabolic stability of representative compounds of the application in pooled human and male mouse liver microsomes. The concentrations of parent compounds in reaction systems were evaluated by LC-MS/MS for estimating the stability in pooled human and male mouse liver microsomes. The in vitro intrinsic clearances of test compounds were determined as well.
# (§2) A master solution in the “Incubation Plate” containing phosphate buffer, ultra-pure H2O, MgCl2 solution and liver microsomes was made according to Table 3. The mixture was pre-warmed at 37° C. water bath for 5 minutes.
# (§3) 40 μL of 10 mM NADPH solution was added to each well. The final concentration of NADPH was 1 mM. The negative control samples were prepared by replacing NADPH with 40 μL of ultra-pure H2O. Samples were prepared in duplicate. Negative controls were prepared in singlet.
# (§4) The reaction was started with the addition of 4 μL of 200 μM test compounds or control compounds to each master solution to get the final concentration of 2 μM. This study was performed in duplicate.
# (§5) Aliquots of 50 μL were taken from the reaction solution at 0, 15, 30, 45 and 60 minutes. The reaction solutions were stopped by the addition of 4 volumes of cold methanol with IS (100 nM alprazolam, 200 nM imipramine, 200 nM labetalol and 2 μM ketoprofen). Samples were centrifuged at 3,220 g for 40 minutes. Aliquot of 90 μL of the supernatant was mixed with 90 μL of ultra-pure H2O and then was used for LC-MS/MS analysis.
# (§6) LC/MS analysis was performed for all samples from this study using a Shimadzu liquid chromatograph separation system equipped with degasser DGU-20A5R; solvent delivery unit LC-30AD; system controller SIL-30AC; column oven CTO-30A; CTC Analytics HTC PAL System. Mass spectrometric analysis was performed using an Triple Quad™ 5500 instrument.
# (§7) All calculations were carried out using Microsoft Excel. Peak area ratios of test compound to internal standard (listed in the below table) were determined from extracted ion chromatograms.
# (§8) All calculations were carried out using Microsoft Excel. Peak areas were determined from extracted ion chromatograms. The slope value, k, was determined by linear regression of the natural logarithm of the remaining percentage of the parent drug vs. incubation time curve.
# (§9) The in vitro half-life (in vitro t1/2) was determined from the slope value:
# (§10) Conversion of the in vitro t1/2(min) into the in vitro intrinsic clearance (in vitro CLint, in μL/min/mg proteins) was done using the following equation (mean of duplicate determinations): […]
# [3] = Liver microsomes stability, rat; conditions: for Predicted hepatic CL: Rat liver microsomes; for Remaining Percentage (%): Rat; for CLint scaled at 2 μM / half-life at 2 μM / microsomal CLint at 2 μM: rat, microsomes
# Protocol: as §1, §2, §3, §4, §5, §6, §7, §8, §9, §10
# [4] = Liver microsomes stability, mouse; conditions: for Predicted hepatic CL: Mouse liver microsomes; for Remaining Percentage (%): Mouse; for CLint scaled at 2 μM / half-life at 2 μM / microsomal CLint at 2 μM: male, mouse, microsomes
# Protocol: as §1, §2, §3, §4, §5, §6, §7, §8, §9, §10
# [5] = Liver microsomes stability, dog; conditions: for Predicted hepatic CL: Dog liver microsomes; for Remaining Percentage (%): Dog; for CLint scaled at 2 μM / half-life at 2 μM / microsomal CLint at 2 μM: dog, microsomes
# [6] = system: C57BL/6J mice; assay: Mouse head twitch; format: in vivo; conditions: mice pretreated with M100907 prior to I-1
# Protocol: The effect of different doses of representative compounds of Formula I were evaluated on head-twitch response (HTR) and other behavioural responses indicative of serotonin syndrome as behavior-based models of psychedelic activity.
# Male, C57BL/6J mice (body weight range 20-30 g) were dosed with the appropriate dose of test article, and following a 1-minute pre-treatment time, placed in individual observation chambers. Animals were visually assessed for the incidence head twitches continuously over a 1 hr period. Head twitches were defined as a rapid jerk of the head which was not elicited by an external tactile stimulus (Come and Pickering, Psychopharmacologia, 1967, 11(1): 65-78). Each head twitch was individually counted by a trained observer, and the data expressed as the mean+SEM of 6-10 mice per group. Mice were used in a single experiment only.
smiles,measurement,setting,value
"CCCCC/C=C\C/C=C\CCCCCCCC(=O)n1cc(C[C@H]2CCCN2C)c2cc(OC)ccc21 [Compound I-6, (9Z,12Z)-1-(5-Methoxy-3-(((R)-1-methylpyrrolidin-2-yl)methyl)-1H-indol-1-yl)octadeca-9,12-dien-1-one]",IC50,[1],< 2000 nM
same,Predicted hepatic CL,[2],4.62 mL/min/kg
same,Remaining Percentage (%),"[2]; With NADPH, 0 min",100.00%
same,Remaining Percentage (%),"[2]; With NADPH, 30 min",91.33%
same,Remaining Percentage (%),"[2]; With NADPH, 60 min",86.76%
same,Remaining Percentage (%),"[2]; Without NADPH, 0 min",100.00%
same,Remaining Percentage (%),"[2]; Without NADPH, 30 min",89.58%
same,Remaining Percentage (%),"[2]; Without NADPH, 60 min",83.22%
same,CLint scaled at 2 μM,[2],5.94 mL/min/kg
same,half-life at 2 μM,[2],4.88 h
same,microsomal CLint at 2 μM,[2],4.74 µL/min/mg
same,Predicted hepatic CL,[3],14.24 mL/min/kg
same,Remaining Percentage (%),"[3]; With NADPH, 0 min",100.00%
same,Remaining Percentage (%),"[3]; With NADPH, 30 min",83.04%
same,Remaining Percentage (%),"[3]; With NADPH, 60 min",72.53%
same,Remaining Percentage (%),"[3]; Without NADPH, 0 min",100.00%
same,Remaining Percentage (%),"[3]; Without NADPH, 30 min",93.17%
same,Remaining Percentage (%),"[3]; Without NADPH, 60 min",92.62%
same,CLint scaled at 2 μM,[3],19.2 mL/min/kg
same,half-life at 2 μM,[3],2.16 h
same,microsomal CLint at 2 μM,[3],10.7 µL/min/mg
same,Predicted hepatic CL,[4],33.37 mL/min/kg
same,Remaining Percentage (%),"[4]; With NADPH, 0 min",100.00%
same,Remaining Percentage (%),"[4]; With NADPH, 30 min",76.15%
same,Remaining Percentage (%),"[4]; With NADPH, 60 min",69.51%
same,Remaining Percentage (%),"[4]; Without NADPH, 0 min",100.00%
same,Remaining Percentage (%),"[4]; Without NADPH, 30 min",81.25%
same,Remaining Percentage (%),"[4]; Without NADPH, 60 min",91.07%
same,CLint scaled at 2 μM,[4],53 mL/min/kg
same,half-life at 2 μM,[4],1.91 h
same,microsomal CLint at 2 μM,[4],12.1 µL/min/mg
same,Predicted hepatic CL,[5],22.75 mL/min/kg
same,Remaining Percentage (%),"[5]; With NADPH, 0 min",100.00%
same,Remaining Percentage (%),"[5]; With NADPH, 30 min",49.51%
same,Remaining Percentage (%),"[5]; With NADPH, 60 min",35.40%
same,Remaining Percentage (%),"[5]; Without NADPH, 0 min",100.00%
same,Remaining Percentage (%),"[5]; Without NADPH, 30 min",84.09%
same,Remaining Percentage (%),"[5]; Without NADPH, 60 min",91.76%
same,CLint scaled at 2 μM,[5],86.3 mL/min/kg
same,half-life at 2 μM,[5],0.667 h
same,microsomal CLint at 2 μM,[5],34.6 µL/min/mg
"[2H]c1c([2H])c([2H])c2c(c1[2H])c(CCN(C([2H])([2H])[2H])C([2H])([2H])[2H])c([2H])n2C(=O)CCCCCCC/C=C\C/C=C\CCCCC [Compound I-7, (9Z,12Z)-1-(3-(2-(Bis(methyl-d3)amino)ethyl)-1H-indol-1-yl-2,4,5,6,7-d5)octadeca-9,12-dien-1-one]",IC50,[1],2000 to 5000 nM
"CCCCC/C=C\C/C=C\CCCCCCCC(=O)n1cc(CCN(C)C)c2ccccc21 [Compound I-8, (9Z,12Z)-1-(3-(2-(Dimethylamino)ethyl)-1H-indol-1-yl)octadeca-9,12-dien-1-one]",IC50,"[1]; [3H]-ketanserin competition, read-out: h5-HT2A IC50",< 2000 nM
same,Predicted hepatic CL,[2],2.16 mL/min/kg
same,Remaining Percentage (%),"[2]; With NADPH, 0 min",100.00%
same,Remaining Percentage (%),"[2]; With NADPH, 30 min",91.39%
same,Remaining Percentage (%),"[2]; With NADPH, 60 min",94.38%
same,Remaining Percentage (%),"[2]; Without NADPH, 0 min",100.00%
same,Remaining Percentage (%),"[2]; Without NADPH, 30 min",91.04%
same,Remaining Percentage (%),"[2]; Without NADPH, 60 min",100.94%
same,CLint scaled at 2 μM,[2],2.42 mL/min/kg
same,half-life at 2 μM,[2],12 h
same,microsomal CLint at 2 μM,[2],1.93 µL/min/mg
same,Predicted hepatic CL,[3],12.94 mL/min/kg
same,Remaining Percentage (%),"[3]; With NADPH, 0 min",100.00%
same,Remaining Percentage (%),"[3]; With NADPH, 30 min",91.29%
same,Remaining Percentage (%),"[3]; With NADPH, 60 min",75.35%
same,Remaining Percentage (%),"[3]; Without NADPH, 0 min",100.00%
same,Remaining Percentage (%),"[3]; Without NADPH, 30 min",107.31%
same,Remaining Percentage (%),"[3]; Without NADPH, 60 min",109.93%
same,CLint scaled at 2 μM,[3],16.9 mL/min/kg
same,half-life at 2 μM,[3],2.45 h
same,microsomal CLint at 2 μM,[3],9.44 µL/min/mg
same,Predicted hepatic CL,[4],6.52 mL/min/kg
same,Remaining Percentage (%),"[4]; With NADPH, 0 min",100.00%
same,Remaining Percentage (%),"[4]; With NADPH, 30 min",105.41%
same,Remaining Percentage (%),"[4]; With NADPH, 60 min",95.29%
same,Remaining Percentage (%),"[4]; Without NADPH, 0 min",100.00%
same,Remaining Percentage (%),"[4]; Without NADPH, 30 min",87.39%
same,Remaining Percentage (%),"[4]; Without NADPH, 60 min",85.47%
same,CLint scaled at 2 μM,[4],7.03 mL/min/kg
same,half-life at 2 μM,[4],14.4 h
same,microsomal CLint at 2 μM,[4],1.61 µL/min/mg
same,Predicted hepatic CL,[5],18.69 mL/min/kg
same,Remaining Percentage (%),"[5]; With NADPH, 0 min",100.00%
same,Remaining Percentage (%),"[5]; With NADPH, 30 min",66.41%
same,Remaining Percentage (%),"[5]; With NADPH, 60 min",56.62%
same,Remaining Percentage (%),"[5]; Without NADPH, 0 min",100.00%
same,Remaining Percentage (%),"[5]; Without NADPH, 30 min",84.36%
same,Remaining Percentage (%),"[5]; Without NADPH, 60 min",92.44%
same,CLint scaled at 2 μM,[5],47.3 mL/min/kg
same,half-life at 2 μM,[5],1.22 h
same,microsomal CLint at 2 μM,[5],19 µL/min/mg
"[2H]C([2H])([2H])N(C([2H])([2H])[2H])C([2H])([2H])C([2H])([2H])c1cn(C(=O)CCCCCCC/C=C\C/C=C\CCCCC)c2cccc(F)c12 [Compound I-9, (9Z,12Z)-1-(3-(2-(Bis(methyl-d3)amino)ethyl-1,1,2,2-d4)-4-fluoro-1H-indol-1-yl)octadeca-9,12-dien-1-one]",IC50,[1],2000 to 5000 nM
"COc1cccc([C@H](O)C2CCN(CCc3ccc(F)cc3)CC2)c1OC [Compound M100907, reference compound]",effect of antagonist pretreatment on HTR induced by I-1,[6],completely blocked
